Measured values taken from publication PMC5218480 (PLoS ONE, 2017).

System: MV-4-11 cells
Assay: Gene expression microarray analysis (Affymetrix PrimeView) and GSEA
Type: cell-based, human
Design: RFU PODN (11730768_x_at) / Fold change /veh PODN (11730768_x_at) / RFU LINC00158 (11744669_a_at) / Fold change /veh LINC00158 (11744669_a_at) / RFU DUSP10 (11751237_a_at) / Fold change /veh DUSP10 (11751237_a_at) / RFU ID3 (11757404_x_at) / Fold change /veh ID3 (11757404_x_at) / RFU PLEKHG5 (11737974_s_at) / Fold change /veh PLEKHG5 (11737974_s_at) / RFU LRRC4B (11730491_at) / Fold change /veh LRRC4B (11730491_at) / RFU GIMAP4 (11747438_a_at) / Fold change /veh GIMAP4 (11747438_a_at) / RFU KRT8 (11758183_x_at) / Fold change /veh KRT8 (11758183_x_at) / RFU CNN1 (11734310_a_at) / Fold change /veh CNN1 (11734310_a_at) / RFU VPS37D (11726825_at) / Fold change /veh VPS37D (11726825_at) / RFU C10orf10 (11716522_x_at) / Fold change /veh C10orf10 (11716522_x_at) / RFU KIR2DL2 /// KIR2DL4 /// KIR2DL5A /// KIR2DL5B /// KIR2DS1 /// KIR2DS2 /// KIR2DS3 /// KIR2DS4 /// KIR3DL3 /// KIR3DL3 /// KIR3DS1 (11738374_at) / Fold change /veh KIR2DL2 /// KIR2DL4 /// KIR2DL5A /// KIR2DL5B /// KIR2DS1 /// KIR2DS2 /// KIR2DS3 /// KIR2DS4 /// KIR3DL3 /// KIR3DL3 /// KIR3DS1 (11738374_at) / RFU C1QL1 (11718748_at) / Fold change /veh C1QL1 (11718748_at) / RFU TMPRSS4 (11747572_a_at) / Fold change /veh TMPRSS4 (11747572_a_at) / RFU HAMP (11756126_x_at) / Fold change /veh HAMP (11756126_x_at) / RFU RNFT2 (11725882_a_at) / Fold change /veh RNFT2 (11725882_a_at) / RFU NR4A2 (11747474_a_at) / Fold change /veh NR4A2 (11747474_a_at) / RFU ABCC12 (11746883_a_at) / Fold change /veh ABCC12 (11746883_a_at) / RFU TMEM136 (11760407_x_at) / Fold change /veh TMEM136 (11760407_x_at) / RFU CLDN22 /// WWC2 (11732394_at) / Fold change /veh CLDN22 /// WWC2 (11732394_at) / RFU HLA-DPB1 (11760878_x_at) / Fold change /veh HLA-DPB1 (11760878_x_at) / RFU SPINT1 (11716480_a_at) / Fold change /veh SPINT1 (11716480_a_at) / RFU GAP43 (11754022_s_at) / Fold change /veh GAP43 (11754022_s_at) / RFU A4GNT (11735810_at) / Fold change /veh A4GNT (11735810_at) / RFU PRB3 (11715151_x_at) / Fold change /veh PRB3 (11715151_x_at) / RFU TUBB4B (11761932_at) / Fold change /veh TUBB4B (11761932_at) / RFU CAPN14 (11732068_a_at) / Fold change /veh CAPN14 (11732068_a_at) / RFU TMCC2 (11721928_a_at) / Fold change /veh TMCC2 (11721928_a_at) / RFU IRGQ (11745062_a_at) / Fold change /veh IRGQ (11745062_a_at) / RFU FAM174B (11720279_a_at) / Fold change /veh FAM174B (11720279_a_at) / RFU TMPRSS4 (11748680_a_at) / Fold change /veh TMPRSS4 (11748680_a_at) / RFU FAM212B (11763350_a_at) / Fold change /veh FAM212B (11763350_a_at) / RFU PLEKHG5 (11743358_a_at) / Fold change /veh PLEKHG5 (11743358_a_at) / RFU ZSCAN30 (11745921_a_at) / Fold change /veh ZSCAN30 (11745921_a_at) / RFU CMKLR1 (11741424_a_at) / Fold change /veh CMKLR1 (11741424_a_at) / RFU LOC101060620 /// MAPK8IP1 (11723275_at) / Fold change /veh LOC101060620 /// MAPK8IP1 (11723275_at) / RFU SPTSSB (11747773_x_at) / Fold change /veh SPTSSB (11747773_x_at) / RFU PRSS12 (11739890_at) / Fold change /veh PRSS12 (11739890_at) / RFU BIN1 (11741810_x_at) / Fold change /veh BIN1 (11741810_x_at) / RFU WNT11 (11732464_a_at) / Fold change /veh WNT11 (11732464_a_at) / RFU C10orf10 (11716521_a_at) / Fold change /veh C10orf10 (11716521_a_at) / RFU C5orf56 (11738089_at) / Fold change /veh C5orf56 (11738089_at) / RFU CYB561 (11721691_x_at) / Fold change /veh CYB561 (11721691_x_at) / RFU ANKRD19P (11752326_a_at) / Fold change /veh ANKRD19P (11752326_a_at) / RFU OR2T12 /// OR2T33 /// OR2T8 (11738714_s_at) / Fold change /veh OR2T12 /// OR2T33 /// OR2T8 (11738714_s_at) / RFU VCAN (11748164_a_at) / Fold change /veh VCAN (11748164_a_at) / RFU JSRP1 (11732532_at) / Fold change /veh JSRP1 (11732532_at) / RFU KRTAP10-11 (11738290_x_at) / Fold change /veh KRTAP10-11 (11738290_x_at) / RFU MYO3A (11730013_a_at) / Fold change /veh MYO3A (11730013_a_at) / RFU EBF3 (11725865_a_at) / Fold change /veh EBF3 (11725865_a_at) / RFU CAMK2N1 (11719241_x_at) / Fold change /veh CAMK2N1 (11719241_x_at) / RFU C5orf56 (11738088_a_at) / Fold change /veh C5orf56 (11738088_a_at) / RFU OLFML3 (11715873_a_at) / Fold change /veh OLFML3 (11715873_a_at) / RFU LOC100653217 /// NTM (11731650_a_at) / Fold change /veh LOC100653217 /// NTM (11731650_a_at) / RFU MAPK11 (11762145_a_at) / Fold change /veh MAPK11 (11762145_a_at) / RFU FIZ1 (11724087_x_at) / Fold change /veh FIZ1 (11724087_x_at) / RFU OASL (11726364_x_at) / Fold change /veh OASL (11726364_x_at) / RFU SOX15 (11748057_x_at) / Fold change /veh SOX15 (11748057_x_at) / RFU CD79A (11719716_a_at) / Fold change /veh CD79A (11719716_a_at) / RFU HIST1H1D (11736915_at) / Fold change /veh HIST1H1D (11736915_at) / RFU CASKIN2 (11723855_a_at) / Fold change /veh CASKIN2 (11723855_a_at) / RFU LOC730098 (11760151_x_at) / Fold change /veh LOC730098 (11760151_x_at) / RFU OR4N2 (11742367_at) / Fold change /veh OR4N2 (11742367_at) / RFU PRRT2 (11749266_a_at) / Fold change /veh PRRT2 (11749266_a_at) / RFU SNX32 (11753110_a_at) / Fold change /veh SNX32 (11753110_a_at) / RFU CDHR5 (11726645_a_at) / Fold change /veh CDHR5 (11726645_a_at) / RFU RCAN1 (11760418_a_at) / Fold change /veh RCAN1 (11760418_a_at) / RFU FAM167A (11723789_a_at) / Fold change /veh FAM167A (11723789_a_at) / RFU FAM26E (11764081_at) / Fold change /veh FAM26E (11764081_at) / RFU ISYNA1 (11749810_s_at) / Fold change /veh ISYNA1 (11749810_s_at) / RFU ACY1 (11761880_at) / Fold change /veh ACY1 (11761880_at) / RFU 11764098_at / Fold change /veh 11764098_at / RFU SAMD14 (11745864_x_at) / Fold change /veh SAMD14 (11745864_x_at) / RFU NPB (11741838_a_at) / Fold change /veh NPB (11741838_a_at) / RFU TMPRSS6 (11731388_a_at) / Fold change /veh TMPRSS6 (11731388_a_at) / RFU KRTAP10-2 (11738614_at) / Fold change /veh KRTAP10-2 (11738614_at) / RFU ARHGAP8 /// PRR5-ARHGAP8 (11727945_x_at) / Fold change /veh ARHGAP8 /// PRR5-ARHGAP8 (11727945_x_at) / RFU KRTAP5-7 /// NADSYN1 (11734609_at) / Fold change /veh KRTAP5-7 /// NADSYN1 (11734609_at) / RFU RASL12 (11751679_a_at) / Fold change /veh RASL12 (11751679_a_at) / RFU CDKN2B (11736163_a_at) / Fold change /veh CDKN2B (11736163_a_at) / RFU PRF1 (11729649_at) / Fold change /veh PRF1 (11729649_at) / RFU, ZNF638 /// ZNF638-IT1 / Fold change vs veh, ZNF638 /// ZNF638-IT1 / RFU, PANK3 / Fold change vs veh, PANK3 / RFU, SH3YL1 / Fold change vs veh, SH3YL1 / RFU, ZEB2 / Fold change vs veh, ZEB2 / RFU, NRIP1 / Fold change vs veh, NRIP1 / RFU, PTTG1IP / Fold change vs veh, PTTG1IP / RFU, CAPN2 / Fold change vs veh, CAPN2 / RFU, MED14 / Fold change vs veh, MED14 / RFU, SNORA58 / Fold change vs veh, SNORA58 / RFU, C1orf63 / Fold change vs veh, C1orf63 / RFU, LRRFIP1 / Fold change vs veh, LRRFIP1 / RFU, NDUFAF7 / Fold change vs veh, NDUFAF7 / RFU, SLC12A2 / Fold change vs veh, SLC12A2 / RFU, IBTK / Fold change vs veh, IBTK / RFU, ESF1 / Fold change vs veh, ESF1 / Fold change vs veh, TMEM50B / RFU, TAOK1 / Fold change vs veh, TAOK1 / RFU, ACBD3 / Fold change vs veh, ACBD3 / RFU, TMA16 / Fold change vs veh, TMA16 / RFU, RWDD3 / Fold change vs veh, RWDD3 / RFU, BCAT1 / Fold change vs veh, BCAT1 / RFU, EDEM3 / Fold change vs veh, EDEM3 / RFU, TMEM33 / Fold change vs veh, TMEM33 / RFU, WDR75 / Fold change vs veh, WDR75 / RFU, AHCTF1 / Fold change vs veh, AHCTF1 / RFU, TFRC / Fold change vs veh, TFRC / RFU, ZDHHC17 / Fold change vs veh, ZDHHC17 / RFU, NOM1 / Fold change vs veh, NOM1 / RFU, ARL8B / Fold change vs veh, ARL8B / RFU, ZBTB11 / Fold change vs veh, ZBTB11 / RFU, TAMM41 / Fold change vs veh, TAMM41 / RFU, KIAA1704 /// LOC100996395 / Fold change vs veh, KIAA1704 /// LOC100996395 / RFU, ING1 / Fold change vs veh, ING1 / RFU, TRMT61B / Fold change vs veh, TRMT61B / RFU, FUBP3 / Fold change vs veh, FUBP3 / RFU, TP53 / Fold change vs veh, TP53 / RFU, TNKS2 / Fold change vs veh, TNKS2 / RFU, ZFP14 / Fold change vs veh, ZFP14 / RFU, ACTR2 / Fold change vs veh, ACTR2 / RFU, PPP3R1 / Fold change vs veh, PPP3R1 / RFU, PIK3R1 / Fold change vs veh, PIK3R1 / RFU, HNRNPA1 / Fold change vs veh, HNRNPA1 / RFU, RNF170 / Fold change vs veh, RNF170 / RFU, ZNF28 / Fold change vs veh, ZNF28 / RFU, RNGTT / Fold change vs veh, RNGTT / RFU, OGT / Fold change vs veh, OGT / RFU, BRD1 / Fold change vs veh, BRD1 / RFU, MARS / Fold change vs veh, MARS / RFU, ZNF655 / Fold change vs veh, ZNF655 / RFU, FAHD1 / Fold change vs veh, FAHD1 / RFU, BDP1 / Fold change vs veh, BDP1 / RFU, LRRCC1 / Fold change vs veh, LRRCC1 / RFU, ARID1A / Fold change vs veh, ARID1A / RFU, ZNF146 / Fold change vs veh, ZNF146 / RFU, ZNF330 / Fold change vs veh, ZNF330 / RFU, GPN3 / Fold change vs veh, GPN3 / RFU, C9orf123 / Fold change vs veh, C9orf123 / RFU, N4BP2L2 / Fold change vs veh, N4BP2L2 / RFU, ARFIP1 / Fold change vs veh, ARFIP1 / RFU, FAM179B / Fold change vs veh, FAM179B / RFU, BCL10 / Fold change vs veh, BCL10 / RFU, UHRF1BP1L / Fold change vs veh, UHRF1BP1L / RFU, BET1 / Fold change vs veh, BET1 / RFU, CNOT2 / Fold change vs veh, CNOT2 / RFU, ZNF268 / Fold change vs veh, ZNF268 / Fold change vs veh, ZNF507 / RFU, DGCR2 / Fold change vs veh, DGCR2 / RFU, WDSUB1 / Fold change vs veh, WDSUB1 / Fold change vs veh, HSP90B1 /// MIR3652 / RFU, ADSS / Fold change vs veh, ADSS / RFU, GK / Fold change vs veh, GK / RFU, ZNF148 / Fold change vs veh, ZNF148 / RFU, TAF9 / Fold change vs veh, TAF9 / RFU, SLC1A5 / Fold change vs veh, SLC1A5 / RFU, SLMO2 / Fold change vs veh, SLMO2 / RFU, ABCC4 / Fold change vs veh, ABCC4 / RFU, LOC101060439 /// RAP1B / Fold change vs veh, LOC101060439 /// RAP1B / RFU, RFX7 / Fold change vs veh, RFX7 / RFU, GTPBP10 / Fold change vs veh, GTPBP10 / RFU, CNEP1R1 / Fold change vs veh, CNEP1R1 / RFU, BIVM-ERCC5 /// ERCC5 / Fold change vs veh, BIVM-ERCC5 /// ERCC5 / RFU, ILF3 / Fold change vs veh, ILF3 / RFU 11762660_at / Fold change /veh 11762660_at / RFU VCAN (11757783_s_at) / Fold change /veh VCAN (11757783_s_at) / RFU DDX43 (11728927_at) / Fold change /veh DDX43 (11728927_at) / RFU KRT8 (11758188_x_at) / Fold change /veh KRT8 (11758188_x_at) / RFU NKD1 (11759106_at) / Fold change /veh NKD1 (11759106_at) / RFU SRD5A1 (11742802_a_at) / Fold change /veh SRD5A1 (11742802_a_at) / RFU TPSAB1 /// TPSB2 (11721975_s_at) / Fold change /veh TPSAB1 /// TPSB2 (11721975_s_at) / RFU GSTM3 (11746129_a_at) / Fold change /veh GSTM3 (11746129_a_at) / RFU IL23R (11737362_x_at) / Fold change /veh IL23R (11737362_x_at) / RFU TMEM51 (11727254_a_at) / Fold change /veh TMEM51 (11727254_a_at) / RFU PIWIL2 (11732686_x_at) / Fold change /veh PIWIL2 (11732686_x_at) / RFU ORM1 (11744905_x_at) / Fold change /veh ORM1 (11744905_x_at) / RFU CCDC152 (11743942_at) / Fold change /veh CCDC152 (11743942_at) / RFU ECM1 (11717891_a_at) / Fold change /veh ECM1 (11717891_a_at) / RFU IL23R (11748794_a_at) / Fold change /veh IL23R (11748794_a_at) / RFU TNFAIP8L3 (11732012_x_at) / Fold change /veh TNFAIP8L3 (11732012_x_at) / RFU MBOAT4 (11741988_at) / Fold change /veh MBOAT4 (11741988_at) / RFU 11764193_at / Fold change /veh 11764193_at / RFU TMEM53 (11763286_at) / Fold change /veh TMEM53 (11763286_at) / RFU MAGEB2 (11727129_at) / Fold change /veh MAGEB2 (11727129_at) / RFU TMEM200A (11744735_a_at) / Fold change /veh TMEM200A (11744735_a_at) / RFU CCDC152 (11751479_a_at) / Fold change /veh CCDC152 (11751479_a_at) / RFU FAM211A (11726209_a_at) / Fold change /veh FAM211A (11726209_a_at) / RFU RGS16 (11746705_a_at) / Fold change /veh RGS16 (11746705_a_at) / RFU VCAN (11755009_s_at) / Fold change /veh VCAN (11755009_s_at) / RFU RHOB (11743442_s_at) / Fold change /veh RHOB (11743442_s_at) / RFU RGS16 (11720943_a_at) / Fold change /veh RGS16 (11720943_a_at) / RFU RGS16 (11720944_at) / Fold change /veh RGS16 (11720944_at) / RFU, VPS4B / Fold change vs veh, VPS4B / RFU, CREB1 / Fold change vs veh, CREB1 / RFU, DNAJC13 / Fold change vs veh, DNAJC13 / RFU, GNAQ / Fold change vs veh, GNAQ / RFU, CDK5R1 / Fold change vs veh, CDK5R1 / RFU, ZRANB3 / Fold change vs veh, ZRANB3 / RFU, CUL4A / Fold change vs veh, CUL4A / RFU, CCNY / Fold change vs veh, CCNY / RFU, UFL1 / Fold change vs veh, UFL1 / RFU, COG3 / Fold change vs veh, COG3 / RFU, DIAPH2 / Fold change vs veh, DIAPH2 / RFU, SKA2 / Fold change vs veh, SKA2 / RFU, AFF3 / Fold change vs veh, AFF3 / RFU, LMF1 / Fold change vs veh, LMF1 / RFU, IPO11 / Fold change vs veh, IPO11 / RFU, DFFB / Fold change vs veh, DFFB / RFU, FOXP1 / Fold change vs veh, FOXP1 / RFU, CARD8 / Fold change vs veh, CARD8 / RFU, STRN3 / Fold change vs veh, STRN3 / RFU, ADK / Fold change vs veh, ADK / RFU, RASSF2 / Fold change vs veh, RASSF2 / RFU, WIPF1 / Fold change vs veh, WIPF1 / RFU, LARP1B / Fold change vs veh, LARP1B / RFU, RASA1 / Fold change vs veh, RASA1 / RFU, RB1 / Fold change vs veh, RB1 / RFU, PPFIA1 / Fold change vs veh, PPFIA1 / RFU, MAT2A / Fold change vs veh, MAT2A / RFU, CCT5 / Fold change vs veh, CCT5 / RFU, WDR92 / Fold change vs veh, WDR92 / RFU, CUX1 / Fold change vs veh, CUX1 / RFU, TTC7A / Fold change vs veh, TTC7A / RFU, TMEM135 / Fold change vs veh, TMEM135 / RFU, DEPTOR / Fold change vs veh, DEPTOR / RFU, CPM / Fold change vs veh, CPM / RFU, DNAJB6 / Fold change vs veh, DNAJB6 / RFU, CACNA2D3 / Fold change vs veh, CACNA2D3 / RFU, DTX4 / Fold change vs veh, DTX4 / RFU, TFCP2 / Fold change vs veh, TFCP2 / RFU, GMCL1 /// GMCL1P1 / Fold change vs veh, GMCL1 /// GMCL1P1 / RFU, AEBP2 / Fold change vs veh, AEBP2 / RFU, SNHG1 /// SNORD22 /// SNORD25 /// SNORD26 /// SNORD27 /// SNORD28 /// SNORD29 /// SNORD31 / Fold change vs veh, SNHG1 /// SNORD22 /// SNORD25 /// SNORD26 /// SNORD27 /// SNORD28 /// SNORD29 /// SNORD31 / Fold change (Aza/veh), C12orf56 (ProbeSet 11735607_a_at) / Fold change (ACY-1035/veh), C12orf56 (ProbeSet 11735607_a_at) / Fold change (Aza/veh), FGFR1OP (ProbeSet 11751329_s_at) / Fold change (ACY-1035/veh), FGFR1OP (ProbeSet 11751329_s_at) / Fold change (Aza/veh), VPS36 (ProbeSet 11739960_a_at) / Fold change (ACY-1035/veh), VPS36 (ProbeSet 11739960_a_at) / RFU SYPL1 (11715823_x_at) / Fold change /veh SYPL1 (11715823_x_at) / RFU IGFBP7 (11715501_s_at) / Fold change /veh IGFBP7 (11715501_s_at) / RFU REEP3 (11722064_at) / Fold change /veh REEP3 (11722064_at) / RFU IGLL1 (11728026_x_at) / Fold change /veh IGLL1 (11728026_x_at): dose or concentration left out as unconfirmed
Details: MV-4-11 cells, 48 hours

SMILES: Nc1ncn([C@@H]2O[C@H](CO)[C@@H](O)[C@H]2O)c(=O)n1 [azacitidine]
- RFU TPSAB1 /// TPSB2 (11721975_s_at): 24.54 RFU
